Values quoted from earlier work in US4886800A, “Substituted cinnoline derivatives as CNS depressants” (ICI Americas Inc., priority 1985, dated 1989).

System: specific [3H]flunitrazepam binding, lysed mitochondrial-synaptosomal (P2) fraction of cerebral cortex
Settings: reference behaviour stated in the description of the test

| SMILES | effect on flunitrazepam binding |
| --- | --- |
| CCCCNc1c(C(=O)OCC)cnc2c1cnn2CC [cartazolate] | enchancement of the binding |
| CCCCNc1c(C(=O)OCC)c(C)nc2c1cnn2CC [tracazolate] | enchancement of the binding |
